Results as given in ChEMBL document CHEMBL3399952, “Design and synthesis of novel anti-tuberculosis agents from the celecoxib pharmacophore” (Bioorg Med Chem, 2015).
Active and inactive are the calls of the source.

Columns and labels:
Type in all cases: functional, organism-based
[1] = test system: Mycobacterium tuberculosis; assay: Antimycobacterial activity against isoniazid, ethambutol-resistant Mycobacterium tuberculosis Strain 11J assessed as reduction in growth measured at 2.5 uM after 90 hrs by optical density-based broth culture growth assay
[2] = test system: Mycobacterium tuberculosis; assay: Antimycobacterial activity against isoniazid, streptomycin-resistant Mycobacterium tuberculosis Strain 13E assessed as reduction in growth measured at 2.5 uM after 90 hrs by optical density-based broth culture growth assay
[3] = test system: Mycobacterium tuberculosis; assay: Antimycobacterial activity against rifampicin, streptomycin-resistant Mycobacterium tuberculosis Strain 13B assessed as reduction in growth measured at 2.5 uM after 90 hrs by optical density-based broth culture growth assay

Measured: inhibition

CNC(=O)CCc1cc(-c2ccc(-c3ccc(C(F)(F)F)cc3)cc2)n(-c2ccc(NC(=O)c3cn(C)cn3)cc2)n1
active: all assays above

CNC(=O)CCc1cc(-c2ccc(-c3ccc(C(F)(F)F)cc3)cc2)n(-c2ccc(NC(=O)c3ccncc3)cc2)n1
active: all assays above

CNC(=O)CCc1cc(-c2ccc(-c3ccc(C(F)(F)F)cc3)cc2)nn1-c1ccc(NC(=O)c2ccncc2)cc1
active: all assays above

CNC(=O)CCc1cc(-c2ccc(-c3ccc(C(F)(F)F)cc3)cc2)n(-c2ccc(NC(=O)c3ccc(N)cc3)cc2)n1
active: all assays above

CNC(=O)CCc1cc(-c2ccc(-c3ccc(C(F)(F)F)cc3)cc2)n(-c2ccc(NC(=O)c3ccnc(C)c3)cc2)n1
active: all assays above

CNC(=O)CCc1cc(-c2ccc(-c3ccc(C(F)(F)F)cc3)cc2)n(-c2ccc(NC(=O)c3ccncc3Cl)cc2)n1
active: all assays above
